# Measurements reported in publication PMC4604124, “In Vitro Characterization of the Pharmacological Properties of the Anti-Cancer Chelator, Bp4eT, and Its Phase I Metabolites” (PLoS ONE, 2015).
# Several values for one entry are separate records, joined by “and”; a condition that tells them apart may be missing. Equal values may be shown once. Read-outs that look alike come from different tables or passages of the source.
# Experiments:
# [1] = tested on: MCF-7 human breast adenocarcinoma cells; assay: MTT cytotoxicity assay, MCF-7 cells; format: cell-based; details: for IC50: MTT, read-out: IC50
# Method: (§1) For cytotoxicity experiments, cancer cells were seeded at a density of 5,000 (MCF-7), 10,000 (HL-60) or 2,000 cells/well (HCT116 and A549) in 96-well plates (TPP) for 24 h/37°C prior to the addition of examined agents. The non-cancerous cells, 3T3 and H9c2 cells, were cultured for 24 h/37°C in 96-well plates at a density of 10,000 cells/well, the medium was then changed to serum- and pyruvate-free DMEM (Sigma-Aldrich) and incubated with the cells for another 24 h/37°C. The cytotoxic effects of Bp4eT and its metabolites were studied at different concentrations after a 72 h/37°C incubation. In order to aid the dissolution of the lipophilic ligands, 0.1% dimethyl sulfoxide (v/v) (DMSO; Sigma-Aldrich) was present in the culture medium of all groups. At this concentration, DMSO had no effect on cellular proliferation or viability.
# (§2) The viability of cells were determined using an MTT assay (Sigma-Aldrich) according to previously established methods. The optical density of soluble MTT was measured at λ = 570 nm, subtracting the λ = 690 nm background using a Tecan Infinite 200M plate reader (Tecan Group, Männedorf, Switzerland). The viability or proliferation of experimental groups was expressed as a percentage of the untreated controls (100%).
# (§3) SigmaStat for Windows 3.5 (Systat Software, San Jose, CA, USA) statistical software package was utilized to analyze results. The data are expressed as the mean ± SD of a given number of experiments. Statistical significance was determined using a one-way ANOVA with a Bonferroni post-hoc test or Student’s t-test. The results were considered to be statistically significant when p < 0.05. The IC50 values were calculated using CalcuSyn 2.0 software (Biosoft, Cambridge, UK). Cell cycle analysis was evaluated using MultiCycle AV Software (Phoenix Flow Systems, San Diego, CA, USA).
# [2] = tested on: A549 human lung adenocarcinoma cells; assay: MTT cytotoxicity assay, A549 cells; format: cell-based; details: for IC50: MTT
# Method: as §1, §2, §3
# [3] = tested on: MCF-7 cells prelabeled with 59Fe2-transferrin; assay: Mobilization (efflux) of cellular 59Fe; format: cell-based, human; parameters: Efflux 59Fe / Efflux 59Fe, Ave: unit not given here
# Description: Human transferrin (Sigma) was labeled with ^56Fe or ^59Fe (PerkinElmer, Massachusetts, USA) to produce ^56Fe2-transferrin or ^59Fe2-transferrin (^59Fe2-Tf), respectively, with a final specific activity of 500 pCi/pmol Fe, as previously described. Unbound ^59Fe was removed by exhaustive vacuum dialysis against a large excess of 0.15 M NaCl buffered to pH 7.4 with 1.4% NaHCO3 by standard methods.
# To examine the ability of studied compounds to mobilize cellular ^59Fe from MCF-7 cells, iron efflux experiments were performed using established techniques. In brief, after pre-labeling confluent MCF-7 cells on 6-well plates with 0.75 μM ^59Fe2-Tf for 3 h/37°C, the cells were washed four times with ice-cold PBS and then subsequently incubated with 25 μM of Bp4eT or its metabolites for 3 h/37°C. The overlying medium containing released ^59Fe was then decanted from the cells. Radioactivity was measured in both the cells and the supernatant using a γ-scintillation counter (Wallac Wizard 3, Turku, Finland).
# MCF-7 cells = assay: Cell cycle analysis by flow cytometry (propidium iodide); format: cell-based, human; details: 0.1 μM, 72 h, control 33%
# Method: To examine the effect of the agents on the cell cycle, MCF-7 cells were seeded in 60 mm Petri dishes at a density of 240,000 cells/dish and incubated with Bp4eT or its metabolites for 72 h/37°C. The cells were then harvested, fixed by ethanol and stained by propidium iodide (Molecular Probes, Eugene, OR, USA) for 30 min/37°C, as described previously. Cells were analyzed using Accuri C6 flow cytometer (Becton Dickinson and Company, San Jose, CA USA). Propidium iodide was excited at λex = 488 nm and fluorescence analyzed at λem = 585 nm (FL-2) with a total of 10,000 events collected per analysis.
# as §3
# caspases 3/7 = assay: Caspase activity, luminescent kit, caspases 3/7; format: cell-based, human; details: for kaspáza (3) a 7, raw signal / kaspáza (3) a 7, signal / viabilita: individual experiments by date; for kaspáza (3) a 7, raw signal, průměry / kaspáza (3) a 7, % kontroly / kaspáza (3) a 7, signal / viabilita, průměry: mean; for kaspáza (3) a 7, % kontroly / kaspáza (3) a 7, signal / viabilita / kaspáza (3) a 7, signal / viabilita, průměry: normalised to viability
# Method: To assess the effect of the compounds on caspase activity, MCF-7 cells were incubated with 100 nM Bp4eT or its metabolites for 3, 24 or 72 h/37°C in 96-well plates, as described above. The cells were then lysed by adding 100 μL of cold lysis buffer (100 mM HEPES, 10 mM CHAPS, 10 mM D-L-dithiothreitol, pH 7.4) to 100 μL of medium in each well. Lysates were immediately frozen at -80°C. Thawed lysates were used to assess caspase activity using luminescent kits for caspases 3/7, 8 and 9 (Promega, Madison, WI, USA). The luminescence was measured using the Tecan Infinite 200M plate reader. Caspase activity in the experimental groups was corrected according to the cellular viability of each group and expressed as a percentage of activity of the untreated control (100%).
smiles,measurement,setting,value
"CCN=CNN=C(c1ccccc1)c1ccccn1 [Bp4eA, N ^3-ethyl-N ^1-[phenyl(pyridin-2-yl)methylene]formamidrazone]","Therapeutic index, IC50 non-cancerous cells / IC50 neoplastic cells",[1]; 3T3/MCF-7,17.3
same,"Therapeutic index, IC50 non-cancerous cells / IC50 neoplastic cells",[1]; H9c2/MCF-7,7.0
same,IC50,"[1]; Homo sapiens, MCF7, 72 h, MCF-7, 72 h/37°C, mean ± SD, n ≥ 4",59.4 ± 8.9 µM
same,IC50,"[1]; Homo sapiens, MCF7, MCF-7, 5 000 b/j, průměr (mean)",59.4 µM
same,IC50,"[1]; Homo sapiens, MCF7, MCF-7, 5 000 b/j, single experiment (by date)",69.9 µM
same,IC50,"[1]; MCF-7, 5 000 b/j, single experiment (by date)",48.9 µM and 62.4 µM and 56.6 µM
same,"MTT, value relative to 0 μM = 100","[1]; MCF-7, 5 000 b/j, koncentrace 1 μM, průměr (mean)",93.04
same,"MTT, value relative to 0 μM = 100","[1]; MCF-7, 5 000 b/j, koncentrace 1 μM, single experiment (by date)",90.8485 and 99.965 and 93.7506 and 93.1688 and 87.4567
same,"MTT, value relative to 0 μM = 100","[1]; MCF-7, 5 000 b/j, koncentrace 3 μM, průměr (mean)",85.43
same,"MTT, value relative to 0 μM = 100","[1]; MCF-7, 5 000 b/j, koncentrace 3 μM, single experiment (by date)",93.874 and 91.0261 and 71.3771
same,"MTT, value relative to 0 μM = 100","[1]; MCF-7, 5 000 b/j, koncentrace 10 μM, průměr (mean)",84.39
same,"MTT, value relative to 0 μM = 100","[1]; MCF-7, 5 000 b/j, koncentrace 10 μM, single experiment (by date)",92.9139 and 90.5956 and 78.0175 and 76.0291
same,"MTT, value relative to 0 μM = 100","[1]; MCF-7, 5 000 b/j, koncentrace 30 μM, průměr (mean)",81.82
same,"MTT, value relative to 0 μM = 100","[1]; MCF-7, 5 000 b/j, koncentrace 30 μM, single experiment (by date)",88.8876 and 87.4579 and 79.9984 and 70.9265
same,"MTT, value relative to 0 μM = 100","[1]; MCF-7, 5 000 b/j, koncentrace 100 μM, průměr (mean)",26.24
same,"MTT, value relative to 0 μM = 100","[1]; MCF-7, 5 000 b/j, koncentrace 100 μM, single experiment (by date)",35.9762 and 29.29 and 21.3398 and 22.2541 and 22.3478
same,"MTT, value relative to 0 μM = 100","[1]; MCF-7, 5 000 b/j, koncentrace 300 μM, průměr (mean)",16.91
same,"MTT, value relative to 0 μM = 100","[1]; MCF-7, 5 000 b/j, koncentrace 300 μM, single experiment (by date)",19.6559 and 17.473 and 16.628 and 13.8677
same,"MTT, value relative to 0 μM = 100","[1]; MCF-7, 5 000 b/j, koncentrace 1000 μM, průměr (mean)",14.02
same,"MTT, value relative to 0 μM = 100","[1]; MCF-7, 5 000 b/j, koncentrace 1000 μM, single experiment (by date)",14.4001 and 13.0033 and 14.9518 and 13.7358
same,"Therapeutic index, IC50 non-cancerous cells / IC50 neoplastic cells",[2]; 3T3/A549,5.0
same,"MTT, relative to control (0 = 100)","[2]; A549, 2 000 b/j, 1 μM, průměr (mean), sheet Bp4eA",94.41
same,"MTT, relative to control (0 = 100)","[2]; A549, 2 000 b/j, 1 μM, single experiment (date), sheet Bp4eA",88.8209 and 94.4571 and 96.7337 and 97.6446
same,"MTT, relative to control (0 = 100)","[2]; A549, 2 000 b/j, 3 μM, průměr (mean), sheet Bp4eA",94.09
same,"MTT, relative to control (0 = 100)","[2]; A549, 2 000 b/j, 3 μM, single experiment (date), sheet Bp4eA",86.5333 and 93.7511 and 98.3115 and 97.7691
same,"MTT, relative to control (0 = 100)","[2]; A549, 2 000 b/j, 10 μM, průměr (mean), sheet Bp4eA",92.78
same,"MTT, relative to control (0 = 100)","[2]; A549, 2 000 b/j, 10 μM, single experiment (date), sheet Bp4eA",86.1682 and 92.0865 and 96.0506 and 96.8227
same,"MTT, relative to control (0 = 100)","[2]; A549, 2 000 b/j, 30 μM, průměr (mean), sheet Bp4eA",91.20
same,"MTT, relative to control (0 = 100)","[2]; A549, 2 000 b/j, 30 μM, single experiment (date), sheet Bp4eA",88.1425 and 87.7957 and 97.6861 and 91.1602
same,"MTT, relative to control (0 = 100)","[2]; A549, 2 000 b/j, 100 μM, průměr (mean), sheet Bp4eA",77.56
same,"MTT, relative to control (0 = 100)","[2]; A549, 2 000 b/j, 100 μM, single experiment (date), sheet Bp4eA",74.9089 and 76.0742 and 86.7011 and 72.5654
same,"MTT, relative to control (0 = 100)","[2]; A549, 2 000 b/j, 300 μM, průměr (mean), sheet Bp4eA",45.10
same,"MTT, relative to control (0 = 100)","[2]; A549, 2 000 b/j, 300 μM, single experiment (date), sheet Bp4eA",48.1515 and 41.8857 and 54.342 and 36.0376
same,"MTT, relative to control (0 = 100)","[2]; A549, 2 000 b/j, 1000 μM, průměr (mean), sheet Bp4eA",7.31
same,"MTT, relative to control (0 = 100)","[2]; A549, 2 000 b/j, 1000 μM, single experiment (date), sheet Bp4eA",9.28 and 7.437 and 7.169 and 5.37
same,IC50,"[2]; A549, 2 000 b/j, single experiment (date), sheet Bp4eA",183 µM and 273 µM and 169 µM
same,"Therapeutic index, IC50 non-cancerous cells / IC50 neoplastic cells",[2]; H9c2/A549,2.0
same,IC50,"[2]; Homo sapiens, A549, 72 h, A549, 72 h/37°C, mean ± SD, n ≥ 4",207 ± 46.1 µM
same,IC50,"[2]; Homo sapiens, A549, A549, 2 000 b/j, průměr (mean), sheet Bp4eA",207 µM
same,IC50,"[2]; Homo sapiens, A549, A549, 2 000 b/j, single experiment (date), sheet Bp4eA",202 µM
same,"Efflux 59Fe, Ave",[3]; average of all replicates,3.53
same,Efflux 59Fe,[3]; single replicate (three per date),4.0325 and 2.6377 and 3.5208 and 3.7889 and 3.2967 and 3.9821 and 3.9608 and 3.1218 and 3.4276
same,Percentage of cells in the G2/M phase,MCF-7 cells,"slight, but significant (p < 0.01–0.05) decrease"
same,"kaspáza (3) a 7, raw signal",caspases 3/7; 3 hodiny,1911.5 and 1519 and 1669 and 1490
same,"kaspáza (3) a 7, raw signal, průměry",caspases 3/7; 3 hodiny,1647.38
same,"kaspáza (3) a 7, % kontroly",caspases 3/7; 3 hodiny,103.19 % kontroly
same,"kaspáza (3) a 7, signal / viabilita",caspases 3/7; 3 hodiny,19.7461 and 15.6915 and 17.241 and 15.3919
same,"kaspáza (3) a 7, signal / viabilita, průměry",caspases 3/7; 3 hodiny,17.0176
same,"kaspáza (3) a 7, raw signal",caspases 3/7; 24 hodin,2415 and 2091.5 and 2337 and 2002.5
same,"kaspáza (3) a 7, raw signal, průměry",caspases 3/7; 24 hodin,2211.5
same,"kaspáza (3) a 7, % kontroly",caspases 3/7; 24 hodin,101.36 % kontroly
same,"kaspáza (3) a 7, signal / viabilita",caspases 3/7; 24 hodin,25.2632 and 21.8791 and 24.4473 and 20.9481
same,"kaspáza (3) a 7, signal / viabilita, průměry",caspases 3/7; 24 hodin,23.1344
same,"kaspáza (3) a 7, raw signal",caspases 3/7; 72 hodin,7143 and 7295 and 7483 and 8002
same,"kaspáza (3) a 7, raw signal, průměry",caspases 3/7; 72 hodin,7480.75
same,"kaspáza (3) a 7, % kontroly",caspases 3/7; 72 hodin,108.88 % kontroly
same,"kaspáza (3) a 7, signal / viabilita",caspases 3/7; 72 hodin,76.7734 and 78.4071 and 80.4278 and 86.006
same,"kaspáza (3) a 7, signal / viabilita, průměry",caspases 3/7; 72 hodin,80.4036
